Converted amounts (≈) assume the structure as drawn. “And” between values parts separate entries of the source, which are not always exact repeats. Equal values may be shown once.
Tests used:
Experiment in all cases: ≥ marks a high value that may be exact or a test limit, other limits are often not marked, values filed in µg/mL are converted to µM
Campylobacter coli = system: Campylobacter coli
[1] = system: Pseudomonas aeruginosa 3552
[2] = system: Bacillus subtilis KCTC 1918
[3] = system: Escherichia coli ATCC 33694
[4] = system: Acinetobacter baumannii KCTC 2508
[5] = system: Salmonella typhimurium KCTC 1926
[6] = system: Staphylococcus aureus 4716
Campylobacter lari = system: Campylobacter lari
[7] = system: Staphylococcus aureus 3551
[8] = system: Pseudomonas aeruginosa KCTC 1637
[9] = system: Staphylococcus epidermidis KCTC 3096
Campylobacter jejuni = system: Campylobacter jejuni
[10] = system: Candida albicans TIMM 1768
[11] = system: Streptococcus pyogenes KCTC 3096
[12] = system: Bacillus subtilis ATCC 6633
[13] = system: Staphylococcus aureus 1870
[14] = system: Staphylococcus aureus KCTC 1621
Acinetobacter baumannii = system: Acinetobacter baumannii
[15] = system: Trichosporon beigelii KCTC 7707
[16] = system: Escherichia coli KCTC 1682
[17] = system: Pseudomonas aeruginosa KCTC 2004
Lactococcus garvieae = system: Lactococcus garvieae
[18] = system: Pseudomonas aeruginosa PAO1
[19] = system: Escherichia coli KCTC 2593
[20] = system: Bacillus subtilis KCTC 3068
Escherichia coli = system: Escherichia coli
[21] = system: Salmonella typhimurium CCARM 8003
Shigella flexneri = system: Shigella flexneri
[22] = system: Staphylococcus aureus ATCC 29213
Escherichia coli mcr = system: Escherichia coli mcr
[23] = system: Staphylococcus aureus KCTC 1916
Escherichia coli K-12 = system: Escherichia coli K-12
[24] = system: Acinetobacter baumannii CCARM 12005
Staphylococcus aureus = system: Staphylococcus aureus
[25] = system: Staphylococcus epidermidis KCTC 1917
Pseudomonas aeruginosa = system: Pseudomonas aeruginosa
Streptococcus iniae = system: Streptococcus iniae
[26] = system: Bacillus subtilis KCTC 1021
Vibrio alginolyticus = system: Vibrio alginolyticus
Enterococcus faecalis = system: Enterococcus faecalis
[27] = system: Staphylococcus aureus KCTC 3881
[28] = system: Actinobacillus pleuropneumoniae
[29] = system: Enterococcus faecalis ATCC 29212
[30] = system: Pseudomonas aeruginosa KCTC 2513
Bacillus subtilis 168 = system: Bacillus subtilis 168
Glaesserella parasuis = system: Glaesserella parasuis
[31] = system: Salmonella typhimurium CVCC 542
[32] = system: Aeromonas salmonicida NCTC 7812
[33] = system: Escherichia coli KCTC 2571
[34] = system: Staphylococcus aureus CCARM 3089
[35] = system: Staphylococcus aureus USA 300
[36] = system: Pseudomonas aeruginosa CCARM 2002
[37] = system: Bacillus subtilis KCTC 1022
[38] = system: Staphylococcus aureus CCARM 3090
[39] = system: Escherichia coli CCARM 1229
[40] = system: Staphylococcus aureus CCARM 3126
[41] = system: Staphylococcus aureus CCARM 3108
Salmonella sp. = system: Salmonella sp.
Aeromonas salmonicida = system: Aeromonas salmonicida
[42] = system: Staphylococcus aureus CCARM 3114
Escherichia coli SBS 363 = system: Escherichia coli SBS 363
Botrytis cinerea = system: Botrytis cinerea
Fusarium oxysporum = system: Fusarium oxysporum
[43] = system: Micrococcus luteus CIP 5345

With CC[C@H](C)[C@H](NC(=O)CNC(=O)[C@@H](NC(=O)[C@H](CCCCN)NC(=O)[C@H](CCCCN)NC(=O)[C@H](Cc1ccccc1)NC(=O)[C@H](CC(C)C)NC(=O)[C@H](CCCCN)NC(=O)[C@H](Cc1c[nH]c2ccccc12)NC(=O)[C@@H](N)CCCCN)[C@@H](C)CC)C(=O)NCC(=O)N[C@@H](CCCCN)C(=O)N[C@@H](Cc1ccccc1)C(=O)N[C@@H](CC(C)C)C(=O)N[C@@H](Cc1cnc[nH]1)C(=O)N[C@@H](CO)C(=O)N[C@@H](C)C(=O)N[C@@H](CCCCN)C(=O)N[C@@H](CCCCN)C(=O)N[C@@H](Cc1ccccc1)C(N)=O [KWKLFKKIGIGKFLHSAKKF] the MIC (Campylobacter coli) was 29.4 µM (≈ 70.7 µg/mL), the MIC [1] was 8 µM and 4 µM and the MIC [2] was 0.78 µM (≈ 1.88 µg/mL). For the same compound, the MIC [3] was 6.25 µM (≈ 15 µg/mL), the MIC [4] was 12.5 µM (≈ 30.1 µg/mL) and the MIC [5] was 0.78 µM (≈ 1.88 µg/mL). It also gave an MIC [6] of 4 µM (≈ 9.62 µg/mL), an MIC (Campylobacter lari) of 20.8 µM (≈ 50 µg/mL) and an MIC [7] of 1 µM (≈ 2.4 µg/mL). The MIC [8] was 1.56 µM (≈ 3.75 µg/mL), the MIC [9] was 2.21 µM (≈ 5.3 µg/mL) and the MIC (Campylobacter jejuni) was 20.8 µM (≈ 50 µg/mL). It also gave an MIC [10] of 12.5 µM (≈ 30.1 µg/mL), an MIC [11] of 0.78 µM (≈ 1.88 µg/mL) and an MIC [12] of 1.1 µM (≈ 2.65 µg/mL). For the same compound, the MIC [13] was at least 64 µM, the MIC [14] was 3.12 µM (≈ 7.51 µg/mL) and the MIC (Acinetobacter baumannii) was 6.25 µM (≈ 15 µg/mL). The MIC [15] was 6.25 µM (≈ 15 µg/mL) and the MIC [16] was 3.12 µM (≈ 7.51 µg/mL).

For CC[C@H](C)[C@H](NC(=O)CNC(=O)[C@H](CCCNC(=N)N)NC(=O)[C@H](Cc1ccccc1)NC(=O)[C@@H](NC(=O)[C@H](Cc1cnc[nH]1)NC(=O)[C@H](Cc1cnc[nH]1)NC(=O)[C@H](Cc1ccccc1)NC(=O)[C@@H](N)Cc1ccccc1)[C@@H](C)CC)C(=O)N[C@H](C(=O)N[C@@H](Cc1cnc[nH]1)C(=O)N[C@H](C(=O)NCC(=O)N[C@@H](CCCCN)C(=O)N[C@H](C(=O)N[C@H](C(=O)N[C@@H](Cc1cnc[nH]1)C(=O)N[C@@H](CCCNC(=N)N)C(=O)N[C@@H](CC(C)C)C(=O)N[C@H](C(=O)N[C@H](C(=O)NCC(=O)O)[C@@H](C)O)C(C)C)[C@@H](C)CC)[C@@H](C)O)C(C)C)C(C)C [FFHHIFRGIVHVGKTIHRLVTG], the MIC [17] was 2 µM (≈ 5.14 µg/mL), the MIC (Lactococcus garvieae) was 1.21 µM (≈ 3.1 µg/mL) and the MIC [18] was 50 µM (≈ 129 µg/mL). For the same compound, the MIC [19] was 1 µM (≈ 2.57 µg/mL), the MIC [20] was 2 µM (≈ 5.14 µg/mL) and the MIC (Escherichia coli) was 1.21 µM (≈ 3.1 µg/mL). For the same compound, the MIC [21] was 4 µM (≈ 10.3 µg/mL), the MIC (Shigella flexneri) was 1.21 µM (≈ 3.1 µg/mL) and the MIC [22] was 2.43 µM (≈ 6.25 µg/mL). It also gave an MIC [5] of 2 µM (≈ 5.14 µg/mL), an MIC (Escherichia coli mcr) of 2.2 µM (≈ 5.66 µg/mL) and an MIC [23] of 1 µM (≈ 2.57 µg/mL). The MIC (Escherichia coli K-12) was 12.5 µM (≈ 32.2 µg/mL), the MIC [24] was 2 µM (≈ 5.14 µg/mL) and the MIC (Staphylococcus aureus) was 1.21 µM (≈ 3.1 µg/mL). For the same compound, the MIC [8] was 4 µM (≈ 10.3 µg/mL), the MIC [25] was 2 µM (≈ 5.14 µg/mL) and the MIC (Pseudomonas aeruginosa) was 4.86 µM and 12.4 µM. It also gave an MIC (Streptococcus iniae) of 1.21 µM (≈ 3.1 µg/mL), an MIC [26] of 2 µM (≈ 5.14 µg/mL) and an MIC (Vibrio alginolyticus) of 1.21 µM (≈ 3.1 µg/mL). For the same compound, the MIC (Enterococcus faecalis) was 1.21 µM (≈ 3.1 µg/mL), the MIC [27] was 2 µM (≈ 5.14 µg/mL) and the MIC [28] was 6.22 µM (≈ 16 µg/mL). For the same compound, the MIC [29] was 1.22 µM (≈ 3.14 µg/mL), the MIC [30] was 2 µM (≈ 5.14 µg/mL) and the MIC (Bacillus subtilis 168) was 12.5 µM (≈ 32.2 µg/mL). The MIC (Glaesserella parasuis) was 3.11 µM (≈ 8 µg/mL), the MIC [14] was 4 µM (≈ 10.3 µg/mL) and the MIC [31] was 6.22 µM (≈ 16 µg/mL). For the same compound, the MIC [32] was at least 77.8 µM, the MIC [33] was 1 µM (≈ 2.57 µg/mL) and the MIC [34] was 8 µM (≈ 20.6 µg/mL). The MIC [35] was 3.1 µM (≈ 7.97 µg/mL), the MIC [36] was 2 µM (≈ 5.14 µg/mL) and the MIC [37] was 1 µM (≈ 2.57 µg/mL). The MIC [38] was 8 µM (≈ 20.6 µg/mL), the MIC [16] was 2 µM (≈ 5.14 µg/mL) and the MIC [39] was 4 µM (≈ 10.3 µg/mL). The MIC [40] was 4 µM (≈ 10.3 µg/mL), the MIC [41] was 4 µM (≈ 10.3 µg/mL) and the MIC (Salmonella sp.) was 6.22 µM (≈ 16 µg/mL). It also gave an MIC (Aeromonas salmonicida) of 1.21 µM (≈ 3.1 µg/mL) and an MIC [42] of 4 µM (≈ 10.3 µg/mL).

NCCCC[C@H](NC(=O)[C@@H]1CCCN1C(=O)[C@@H](N)CCCN=C(N)N)C(=O)N1CCC[C@H]1C(=O)N[C@@H](CCCN=C(N)N)C(=O)N1CCC[C@H]1C(=O)N[C@@H](CCCN=C(N)N)C(=O)N1CCC[C@H]1C(=O)N[C@@H](CCCN=C(N)N)C(=O)N1CCC[C@H]1C(=O)N[C@@H](CCC(=O)O)C(N)=O [RPKPRPRPRPE] gave an MIC (Escherichia coli SBS 363) of at least 200 µM, an MIC (Botrytis cinerea) of at least 100 µM and an MIC (Fusarium oxysporum) of at least 100 µM. The MIC [43] was at least 200 µM.
